Measured values: US20230129359A1, “MUSCARINIC RECEPTOR 4 ANTAGONISTS AND METHODS OF USE” (Neurocrine Biosciences, Inc., priority 2020, published 2023)
pKi: −log10 of the molar value.

Molecular target: T1, human M4 receptor (Homo sapiens, UniProt P08173)
T1 construct: expressed in transfected cells; host or cells: CHO cells
T1 sequence (P08173 1-479): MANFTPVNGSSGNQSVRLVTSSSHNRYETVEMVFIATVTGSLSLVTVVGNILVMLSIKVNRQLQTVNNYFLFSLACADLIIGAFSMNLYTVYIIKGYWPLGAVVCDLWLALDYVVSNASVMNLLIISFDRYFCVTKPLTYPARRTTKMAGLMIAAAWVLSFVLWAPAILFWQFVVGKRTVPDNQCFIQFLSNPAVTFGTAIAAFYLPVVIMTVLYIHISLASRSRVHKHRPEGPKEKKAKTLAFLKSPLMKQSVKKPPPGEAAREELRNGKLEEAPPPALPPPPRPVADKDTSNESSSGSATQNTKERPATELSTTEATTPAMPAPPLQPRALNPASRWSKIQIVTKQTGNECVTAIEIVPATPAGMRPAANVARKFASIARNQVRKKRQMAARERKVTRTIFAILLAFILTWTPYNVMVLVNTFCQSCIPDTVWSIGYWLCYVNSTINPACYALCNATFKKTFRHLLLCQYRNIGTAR
Assay: Radioligand ([3H]N-methylscopolamine) binding assay, membranes from CHO cells expressing human M4 receptor
Settings: Ki against human M4 receptor; membranes from CHO cells; tritiated N-methylscopolamine 1.5 nM; read-out: K
Method in brief: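 Competition binding used CHO-cell membranes expressing human M4 with 1.5 nM [3H]N-methylscopolamine and twelve compound concentrations ([…]). Incubation was 90 minutes at 37 °C in 50 mM HEPES, 100 mM NaCl, 5 mM MgCl2, 1 mM EDTA, pH 7.4. Bound ligand was collected by filtration onto PEI-treated glass fibre for Ki.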

pKi | SMILES
7.00 to 8.00 | C[C@@H]1CN(c2cnc(C(F)(F)F)cn2)[C@@H](C)CN1C(=O)OC1CC2(C1)CN(Cc1ccc(F)cc1)C2 [Compound 400, 2-[(4-fluorophenyl)methyl]-2-azaspiro[3.3]heptan-6-yl (2R,5S)-2,5-dimethyl-4-[5-(trifluoromethyl)pyrazin-2-yl]piperazine-1-carboxylate]
6.00 to 7.00 | O=C(OC1CC2(C1)CN(Cc1ccccc1)C2)N1CCN(c2cc(F)c(F)c(F)c2)CC1 [Compound 105, 2-benzyl-2-azaspiro[3.3]heptan-6-yl 4-(3,4,5-trifluorophenyl)piperazine-1-carboxylate]
6.00 to 7.00 | C[C@@H]1CN(c2cnc(C(F)(F)F)cn2)C[C@@H](C)N1C(=O)NCC1CC2(C1)CN(Cc1ccccc1)C2 [Compound 63, (2R,6R)-N-({2-benzyl-2-azaspiro[3.3]heptan-6-yl}methyl)-2,6-dimethyl-4-[5-(trifluoromethyl)pyrazin-2-yl]piperazine-1-carboxamide]
> 8.00 | C[C@@H]1CN(c2ncc(C(F)(F)F)c(N)n2)C[C@H](C)N1C(=O)OC1CC2(C1)CN(Cc1ccc(F)cc1)C2 [Compound 466, 2-[(4-fluorophenyl)methyl]-2-azaspiro[3.3]heptan-6-yl (2R,6S)-4-[4-amino-5 (trifluoromethyl)pyrimidin-2-yl]-2,6-dimethylpiperazine-1-carboxylate]
6.00 to 7.00 | C[C@@H]1CN(c2cnc(C(F)(F)F)cn2)[C@@H](C)CN1C(=O)OC1(C(F)F)CC2(CN(Cc3ccccc3)C2)C1 [Compound 347, 2-benzyl-6-(difluoromethyl)-2-azaspiro[3.3]heptan-6-yl (2R,5S)-2,5-dimethyl-4-[5-(trifluoromethyl)pyrazin-2-yl]piperazine-1-carboxylate]
> 8.00 | C[C@@H]1CN(c2ccc(C(F)(F)F)cc2)[C@@H](C)CN1C(=O)OC1CC2(C1)CN(Cc1ccccc1)C2 [Compound 527, 2-benzyl-2-azaspiro[3.3]heptan-6-yl (2R,5S)-2,5-dimethyl-4-[4-(trifluoromethyl)phenyl]pipera-zine-1-carboxylate]
7.00 to 8.00 | C[C@@H]1CN(c2ncc(C#N)cn2)C[C@H](C)N1C(=O)OC1CC2(C1)CN(Cc1ccccc1)C2 [Compound 130, 2-Benzyl-2-azaspiro[3.3]heptan-6-yl (2R,6S)-4-(5-cyanopyrimidin-2-yl)-2,6-dimethylpiperazine-1-carboxylate]
6.00 to 7.00 | C[C@@H]1CN(c2ncc(C#N)cn2)C[C@H](C)N1C(=O)NC1CC2(C1)CN(Cc1ccccc1)C2 [Compound 66]
> 8.00 | CCc1cnc(N2C[C@@H](C)N(C(=O)OC3CC4(C3)CN(Cc3ccccc3)C4)[C@@H](C)C2)nc1 [Compound 497, 2-benzyl-2-azaspiro[3.3]heptan-6-yl (2R,6S)-4-(5-ethylpyrimidin-2-yl)-2,6-dimethylpiperazine-1-carboxylate]
6.00 to 7.00 | C[C@@H]1CN(c2ncc(C(F)(F)F)cn2)CCN1C(=O)NC1CC2(C1)CN(Cc1ccc(Cl)cc1)C2 [Compound 257, (2R)-N-{2-[(4-chlorophenyl)methyl]-2-azaspiro[3.3]heptan-6-yl}-2-methyl-4-[5-(trifluoromethyl)pyrimidin-2-yl]piperazine-1-carboxamide]
7.00 to 8.00 | C[C@@H]1CN(c2cnc3ccccc3n2)C[C@H](C)N1C(=O)NC1CC2(C1)CN(Cc1ccccc1)C2 [Compound 214, (2R,6S)-N-{2-benzyl-2-azaspiro[3.3]heptan-6-yl}-2,6-dimethyl-4-(quinoxalin-2-yl)piperazine-1-carboxamide]

SMILES | pKi
O=C(OC1CC2(C1)CN(Cc1ccccc1)C2)N1CC2COCC(C1)N2c1cnc(C(F)(F)F)cn1 [Compound 496, 2-benzyl-2-azaspiro[3.3]heptan-6-yl 9-[5-(trifluoromethyl)pyrazin-2-yl]-3-oxa-7,9-diazabicyclo[3.3.1]nonane-7-carboxylate] | 6.00 to 7.00
N#Cc1cnc(N2CC3CC(C2)N3C(=O)OC2CC3(C2)CN(Cc2ccccc2)C3)cn1 [Compound 111, 2-benzyl-2-azaspiro[3.3]heptan-6-yl 3-(5-cyanopyrazin-2-yl)-3,6-diazabicyclo[3.1.1]heptane-6-carboxylate] | 6.00 to 7.00
